Tested on: Hela cancer cells
Test: Toxicity evaluation: cell density of Hela cancer cells cultured with FA (folic acid)-modified particles
Type: cell-based
Settings: FA-modified particles on Hela cells, FIG. 9
Description: Particles of Examples 1 to 3 or Comparative Examples 1 to 2 were subjected to toxicity evaluation by cancer cell imaging and fluorescence intensity measurement by the following methods.
To 250 mg of the particles of Examples 1 to 3 or Comparative Examples 1 to 2, 12 ml of an HCl aqueous solution (pH=2) was added, and ultrasonic treatment was carried out. Next, a solution containing 0.78 ml (3.3 mmol) of 3-aminopropyltriethoxysilane (APTES) in 5 mL of ethanol was prepared and added to the ultrasonic-treated solution to obtain a mixed solution. The mixed solution was stirred for 20 hours at 40° C. (pH<6.5). […]
After the above cells were cultured, a polystyrene dish (TCPS) including cells was washed twice with 1 ml of phosphate buffered saline (PBS), then FA (folic acid)-modified particles which had not taken up by the cells were removed, 0.1 ml of 0.05% Trypsin-EDTA was placed in a TCPS including cells, followed by allowing to stand still in a CO2 incubator for 12 minutes, and cells were peeled off from TCPS. […] Thereafter, the supernatant was discarded, 20 ml of medium was added to the tube, pipetting was carried out about 20 times, 1 ml was aliquoted into 15 ml-tubes, the cell suspension was placed into a disposable hemocytometer using a micropipette outside a clean bench, the cell number was confirmed under a microscope, and the average value (cell/cm^2) was calculated. […]

With `O.O.O.O.O.O.[Cl][Eu]([Cl])[Cl]` [Comparative Example 2, Europium chloride hexahydrate] the “cell proliferation behavior (average cell density)” value (3, 12, 24, 36 and 48 hours after spraying) was “a normal cell proliferation behavior was not observed” and the cytotoxicity was “cytotoxicity due to the elution”.

From patent US12276039B2, “Crystal of europium compound and method for producing crystal of europium compound” (OHARA INC., priority 2020, dated 2025)
